Assay results: BindingDB's records for doi:10.1016/0028-3908(94)90059-0 (University of Alberta, 1994)
Where “and” joins values, the source holds several entries; their conditions need not be identical. Identical values can stand only once.

Experiments:
[1] = molecular target: 5-hydroxytryptamine receptor 7 (Mus musculus, UniProt P32304)
[2] = molecular target: 5-hydroxytryptamine receptor 1E (Homo sapiens, UniProt P28566)
[3] = molecular target: 5-hydroxytryptamine receptor 5B (Rattus norvegicus, UniProt P35365)
5-hydroxytryptamine receptor 5B, sequence (P35365 whole entry): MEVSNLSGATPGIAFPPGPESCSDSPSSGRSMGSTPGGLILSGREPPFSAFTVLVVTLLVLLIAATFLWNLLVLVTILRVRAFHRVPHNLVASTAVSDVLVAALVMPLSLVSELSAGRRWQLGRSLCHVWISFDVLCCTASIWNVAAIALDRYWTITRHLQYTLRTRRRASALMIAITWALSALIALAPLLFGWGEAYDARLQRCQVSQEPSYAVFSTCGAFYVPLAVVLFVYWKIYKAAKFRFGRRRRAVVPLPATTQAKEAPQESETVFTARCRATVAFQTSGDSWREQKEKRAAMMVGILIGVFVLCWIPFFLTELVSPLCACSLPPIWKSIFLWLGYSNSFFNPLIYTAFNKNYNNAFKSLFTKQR

[4] = molecular target: 5-hydroxytryptamine receptor 1B (Rattus norvegicus, UniProt P28564)
5-hydroxytryptamine receptor 1B (Rattus norvegicus, UniProt P28564), sequence (P28564 whole entry): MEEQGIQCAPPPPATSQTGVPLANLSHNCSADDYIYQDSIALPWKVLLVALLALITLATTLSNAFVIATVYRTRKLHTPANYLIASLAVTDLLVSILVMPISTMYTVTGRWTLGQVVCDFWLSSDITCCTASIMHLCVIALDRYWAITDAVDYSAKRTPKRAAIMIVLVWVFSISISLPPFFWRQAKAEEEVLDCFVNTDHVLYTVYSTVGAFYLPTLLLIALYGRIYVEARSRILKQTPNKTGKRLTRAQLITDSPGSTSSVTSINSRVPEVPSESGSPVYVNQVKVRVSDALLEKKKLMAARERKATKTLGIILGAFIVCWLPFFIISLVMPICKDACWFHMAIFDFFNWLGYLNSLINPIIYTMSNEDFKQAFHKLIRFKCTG

[5] = molecular target: T1, 5-hydroxytryptamine receptor 3A (Mus musculus, UniProt P23979)
T1 sequence (P23979 whole entry): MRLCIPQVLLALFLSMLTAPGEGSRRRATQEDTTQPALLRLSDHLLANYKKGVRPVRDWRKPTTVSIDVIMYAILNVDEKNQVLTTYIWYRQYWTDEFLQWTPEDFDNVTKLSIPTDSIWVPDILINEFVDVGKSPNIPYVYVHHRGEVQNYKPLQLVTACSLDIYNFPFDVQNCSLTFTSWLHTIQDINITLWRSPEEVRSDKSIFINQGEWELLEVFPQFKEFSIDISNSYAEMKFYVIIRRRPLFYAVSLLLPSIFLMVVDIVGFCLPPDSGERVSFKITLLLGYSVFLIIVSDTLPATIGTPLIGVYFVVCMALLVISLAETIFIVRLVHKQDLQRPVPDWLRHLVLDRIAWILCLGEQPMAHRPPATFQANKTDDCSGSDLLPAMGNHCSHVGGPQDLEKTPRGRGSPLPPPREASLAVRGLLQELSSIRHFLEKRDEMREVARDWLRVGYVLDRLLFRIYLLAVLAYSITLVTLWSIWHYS

[6] = molecular target: T2, 5-hydroxytryptamine receptor 1F (Mus musculus, UniProt Q02284)
T2 sequence (Q02284 whole entry): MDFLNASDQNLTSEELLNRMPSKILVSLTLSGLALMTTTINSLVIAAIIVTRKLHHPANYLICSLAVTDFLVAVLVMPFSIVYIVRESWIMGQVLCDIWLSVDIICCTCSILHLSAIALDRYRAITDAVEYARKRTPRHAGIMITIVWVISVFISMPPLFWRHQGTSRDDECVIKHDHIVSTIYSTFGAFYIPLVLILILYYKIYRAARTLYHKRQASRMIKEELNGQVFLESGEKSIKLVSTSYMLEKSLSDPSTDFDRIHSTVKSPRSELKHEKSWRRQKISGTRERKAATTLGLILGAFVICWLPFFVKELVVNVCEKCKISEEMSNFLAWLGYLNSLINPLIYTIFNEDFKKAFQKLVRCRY

[7] = molecular target: 5-hydroxytryptamine receptor 5A (Mus musculus, UniProt P30966)
5-hydroxytryptamine receptor 5A (Mus musculus, UniProt P30966), sequence (P30966 whole entry): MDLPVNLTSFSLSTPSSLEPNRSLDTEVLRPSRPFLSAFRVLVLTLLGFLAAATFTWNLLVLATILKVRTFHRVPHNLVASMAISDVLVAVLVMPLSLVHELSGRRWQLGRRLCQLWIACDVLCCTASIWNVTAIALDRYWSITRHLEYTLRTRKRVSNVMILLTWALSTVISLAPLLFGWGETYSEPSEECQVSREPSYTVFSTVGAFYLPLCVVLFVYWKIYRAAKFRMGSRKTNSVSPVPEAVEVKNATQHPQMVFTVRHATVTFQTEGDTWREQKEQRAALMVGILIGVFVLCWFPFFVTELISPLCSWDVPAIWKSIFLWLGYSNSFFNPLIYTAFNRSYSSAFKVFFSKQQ

[8] = molecular target: 5-hydroxytryptamine receptor 5A (Rattus norvegicus, UniProt P35364)
5-hydroxytryptamine receptor 5A (Rattus norvegicus, UniProt P35364), sequence (P35364 whole entry): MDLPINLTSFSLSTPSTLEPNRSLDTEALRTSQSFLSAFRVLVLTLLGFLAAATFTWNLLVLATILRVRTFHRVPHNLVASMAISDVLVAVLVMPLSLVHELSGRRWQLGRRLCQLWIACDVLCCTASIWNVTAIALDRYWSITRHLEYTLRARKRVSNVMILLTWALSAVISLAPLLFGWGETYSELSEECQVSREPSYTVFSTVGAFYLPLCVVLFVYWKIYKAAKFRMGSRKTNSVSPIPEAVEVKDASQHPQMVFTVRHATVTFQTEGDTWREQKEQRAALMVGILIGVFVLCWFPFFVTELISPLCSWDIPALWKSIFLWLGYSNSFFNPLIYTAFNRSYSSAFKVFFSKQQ

[9] = molecular target: 5-hydroxytryptamine receptor 2B (Mus musculus, UniProt Q02152)
5-hydroxytryptamine receptor 2B (Mus musculus, UniProt Q02152), sequence (Q02152 whole entry): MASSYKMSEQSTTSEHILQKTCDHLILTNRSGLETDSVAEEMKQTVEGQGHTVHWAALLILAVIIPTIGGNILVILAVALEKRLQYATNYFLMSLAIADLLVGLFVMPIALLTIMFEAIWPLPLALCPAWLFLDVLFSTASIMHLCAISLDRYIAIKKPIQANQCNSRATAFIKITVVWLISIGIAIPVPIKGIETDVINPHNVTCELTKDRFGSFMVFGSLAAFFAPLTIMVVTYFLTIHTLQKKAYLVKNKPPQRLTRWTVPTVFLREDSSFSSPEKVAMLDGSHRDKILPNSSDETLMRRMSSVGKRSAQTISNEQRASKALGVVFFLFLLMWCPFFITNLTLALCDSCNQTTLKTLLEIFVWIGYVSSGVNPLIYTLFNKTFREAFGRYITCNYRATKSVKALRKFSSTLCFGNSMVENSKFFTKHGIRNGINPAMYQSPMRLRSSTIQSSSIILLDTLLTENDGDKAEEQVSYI

[10] = molecular target: T3, 5-hydroxytryptamine receptor 1F (Rattus norvegicus, UniProt P30940)
T3 sequence (P30940 whole entry): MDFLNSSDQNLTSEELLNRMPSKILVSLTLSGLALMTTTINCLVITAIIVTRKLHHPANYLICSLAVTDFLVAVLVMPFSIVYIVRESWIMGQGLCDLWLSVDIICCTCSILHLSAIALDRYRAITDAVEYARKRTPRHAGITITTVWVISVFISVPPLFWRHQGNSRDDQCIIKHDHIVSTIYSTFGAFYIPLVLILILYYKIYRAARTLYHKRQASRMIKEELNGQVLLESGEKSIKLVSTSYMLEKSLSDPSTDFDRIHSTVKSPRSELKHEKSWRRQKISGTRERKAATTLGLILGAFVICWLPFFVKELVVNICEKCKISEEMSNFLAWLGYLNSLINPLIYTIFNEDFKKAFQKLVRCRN

[11] = molecular target: T4, 5-hydroxytryptamine receptor 2C (Rattus norvegicus, UniProt P08909)
T4 sequence (P08909 whole entry): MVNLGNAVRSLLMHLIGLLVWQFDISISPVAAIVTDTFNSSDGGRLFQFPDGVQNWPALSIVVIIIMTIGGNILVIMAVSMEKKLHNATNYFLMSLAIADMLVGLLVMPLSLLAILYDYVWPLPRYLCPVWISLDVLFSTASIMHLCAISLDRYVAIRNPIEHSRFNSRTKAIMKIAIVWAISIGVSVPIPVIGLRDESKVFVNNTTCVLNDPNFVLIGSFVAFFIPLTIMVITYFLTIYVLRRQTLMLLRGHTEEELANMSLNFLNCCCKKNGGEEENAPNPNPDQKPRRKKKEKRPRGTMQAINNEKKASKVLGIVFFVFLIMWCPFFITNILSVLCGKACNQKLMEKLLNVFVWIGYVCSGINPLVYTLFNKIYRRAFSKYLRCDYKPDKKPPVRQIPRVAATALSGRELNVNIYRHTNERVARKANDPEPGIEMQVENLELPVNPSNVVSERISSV

[12] = molecular target: T5, 5-hydroxytryptamine receptor 1F (Homo sapiens, UniProt P30939)
T5 sequence (P30939 whole entry): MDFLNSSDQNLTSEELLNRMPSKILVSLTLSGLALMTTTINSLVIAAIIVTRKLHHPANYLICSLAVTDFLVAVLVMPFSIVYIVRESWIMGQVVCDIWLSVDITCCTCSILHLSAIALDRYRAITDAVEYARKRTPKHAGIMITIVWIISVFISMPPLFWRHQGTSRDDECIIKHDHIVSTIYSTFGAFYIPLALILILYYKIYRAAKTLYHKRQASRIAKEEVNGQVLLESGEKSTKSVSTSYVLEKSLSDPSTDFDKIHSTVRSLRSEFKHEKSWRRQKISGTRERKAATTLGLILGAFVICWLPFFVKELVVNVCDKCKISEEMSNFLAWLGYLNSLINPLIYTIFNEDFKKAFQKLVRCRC

[13] = molecular target: 5-hydroxytryptamine receptor 2B (Rattus norvegicus, UniProt P30994)
5-hydroxytryptamine receptor 2B (Rattus norvegicus, UniProt P30994), sequence (P30994 whole entry): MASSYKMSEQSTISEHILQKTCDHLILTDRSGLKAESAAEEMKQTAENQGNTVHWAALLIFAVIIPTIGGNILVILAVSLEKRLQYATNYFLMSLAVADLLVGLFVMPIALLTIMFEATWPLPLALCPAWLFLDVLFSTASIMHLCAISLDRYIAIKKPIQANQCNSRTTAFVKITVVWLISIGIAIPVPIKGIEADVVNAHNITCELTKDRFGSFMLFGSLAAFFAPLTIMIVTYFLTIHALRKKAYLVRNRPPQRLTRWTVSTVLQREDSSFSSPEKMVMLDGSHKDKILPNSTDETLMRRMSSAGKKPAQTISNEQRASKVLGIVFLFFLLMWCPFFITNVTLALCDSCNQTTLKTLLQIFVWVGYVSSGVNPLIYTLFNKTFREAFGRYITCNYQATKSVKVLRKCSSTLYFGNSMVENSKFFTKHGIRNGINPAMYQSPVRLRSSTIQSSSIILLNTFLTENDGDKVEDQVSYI

[14] = molecular target: 5-hydroxytryptamine receptor 4 (Cavia porcellus, UniProt O70528)
5-hydroxytryptamine receptor 4, sequence (O70528 whole entry): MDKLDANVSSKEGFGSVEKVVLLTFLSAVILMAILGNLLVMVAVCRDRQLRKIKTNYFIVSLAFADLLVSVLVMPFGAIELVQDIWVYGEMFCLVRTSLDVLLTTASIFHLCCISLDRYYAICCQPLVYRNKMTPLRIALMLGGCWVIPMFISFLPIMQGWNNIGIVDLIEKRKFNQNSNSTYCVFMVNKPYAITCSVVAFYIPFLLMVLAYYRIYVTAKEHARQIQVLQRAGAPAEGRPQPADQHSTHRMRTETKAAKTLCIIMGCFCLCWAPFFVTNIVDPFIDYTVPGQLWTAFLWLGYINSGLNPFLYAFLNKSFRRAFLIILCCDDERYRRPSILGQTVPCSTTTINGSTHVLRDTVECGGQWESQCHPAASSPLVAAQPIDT

[15] = molecular target: 5-hydroxytryptamine receptor 1D (Rattus norvegicus, UniProt P28565)
5-hydroxytryptamine receptor 1D (Rattus norvegicus, UniProt P28565), sequence (P28565 whole entry): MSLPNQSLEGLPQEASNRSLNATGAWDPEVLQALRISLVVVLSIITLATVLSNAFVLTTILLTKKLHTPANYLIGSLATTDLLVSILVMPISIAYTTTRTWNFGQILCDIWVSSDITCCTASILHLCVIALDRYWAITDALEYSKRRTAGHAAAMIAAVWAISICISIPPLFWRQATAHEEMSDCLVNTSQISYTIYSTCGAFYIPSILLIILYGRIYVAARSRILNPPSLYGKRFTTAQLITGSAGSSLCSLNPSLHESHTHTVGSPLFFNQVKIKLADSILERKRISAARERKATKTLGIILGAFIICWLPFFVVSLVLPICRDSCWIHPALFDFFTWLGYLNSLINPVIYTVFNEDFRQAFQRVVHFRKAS

[16] = molecular target: 5-hydroxytryptamine receptor 1D (Canis lupus familiaris, UniProt P11614)
5-hydroxytryptamine receptor 1D (Canis lupus familiaris, UniProt P11614), sequence (P11614 whole entry): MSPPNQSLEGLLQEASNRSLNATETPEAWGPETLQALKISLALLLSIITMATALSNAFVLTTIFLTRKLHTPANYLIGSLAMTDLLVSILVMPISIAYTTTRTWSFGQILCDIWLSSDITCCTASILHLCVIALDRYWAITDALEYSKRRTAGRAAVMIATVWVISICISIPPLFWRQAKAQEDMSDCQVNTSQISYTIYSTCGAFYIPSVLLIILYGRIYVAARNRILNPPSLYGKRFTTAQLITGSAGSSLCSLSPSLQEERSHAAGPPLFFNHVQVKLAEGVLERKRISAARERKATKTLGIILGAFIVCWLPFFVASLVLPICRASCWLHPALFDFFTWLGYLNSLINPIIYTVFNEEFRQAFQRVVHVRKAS

[17] = molecular target: 5-hydroxytryptamine receptor 2A (Rattus norvegicus, UniProt P14842)
[18] = molecular target: 5-hydroxytryptamine receptor 1B (Mus musculus, UniProt P28334)
5-hydroxytryptamine receptor 1B (Mus musculus, UniProt P28334), sequence (P28334 whole entry): as the sequence (P28564 whole entry) above, with T15A, A23T, D33G, D152E, V192M, V270A, E272D, T385A counted along it

5-hydroxytryptamine receptor 1E, sequence (P28566 whole entry): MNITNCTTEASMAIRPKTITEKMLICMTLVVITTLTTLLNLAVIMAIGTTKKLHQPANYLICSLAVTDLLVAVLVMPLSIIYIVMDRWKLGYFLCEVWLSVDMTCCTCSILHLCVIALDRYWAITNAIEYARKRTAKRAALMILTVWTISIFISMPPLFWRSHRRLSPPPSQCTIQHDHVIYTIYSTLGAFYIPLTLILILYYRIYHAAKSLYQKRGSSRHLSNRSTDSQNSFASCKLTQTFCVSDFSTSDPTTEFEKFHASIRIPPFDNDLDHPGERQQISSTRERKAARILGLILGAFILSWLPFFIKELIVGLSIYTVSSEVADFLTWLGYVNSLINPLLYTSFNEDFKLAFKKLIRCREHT
5-hydroxytryptamine receptor 7, sequence (P32304 whole entry): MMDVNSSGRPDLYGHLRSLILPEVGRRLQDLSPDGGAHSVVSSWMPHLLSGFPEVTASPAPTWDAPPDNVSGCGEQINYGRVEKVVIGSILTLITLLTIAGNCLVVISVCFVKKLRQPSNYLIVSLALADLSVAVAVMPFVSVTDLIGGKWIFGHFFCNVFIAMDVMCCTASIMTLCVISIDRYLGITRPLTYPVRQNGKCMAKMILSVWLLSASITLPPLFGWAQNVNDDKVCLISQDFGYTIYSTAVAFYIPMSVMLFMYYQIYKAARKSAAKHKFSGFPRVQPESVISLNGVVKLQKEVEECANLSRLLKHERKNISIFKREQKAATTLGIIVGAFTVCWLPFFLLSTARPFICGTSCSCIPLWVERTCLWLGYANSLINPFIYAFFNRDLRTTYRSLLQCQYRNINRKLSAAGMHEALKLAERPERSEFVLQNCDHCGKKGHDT

| Structure (SMILES) | Ki [1] [nM] | Ki [2] | Ki [6] [nM] | Ki [7] | Ki [8] [nM] | Ki [9] [nM] | Ki [10] [nM] | Ki [11] | Ki [14] | also measured |
| --- | --- | --- | --- | --- | --- | --- | --- | --- | --- | --- |
| CC[C@@H](CO)NC(=O)[C@@H]1C=C2c3cccc4c3c(cn4C)C[C@H]2N(C)C1 | 12.6 | 324 nM and 219 nM | 6.3 | 79.4 nM | 195 | 12.6 | 13.5 |  |  | Ki [3]: 1000 nM; Ki [4]: 1820 nM and 437 nM; Ki [5]: > 10000 nM |
| c1ccc2nc(N3CCNCC3)ccc2c1 [2-Piperazin-1-yl-quinoline (Quipazine)] |  |  |  |  |  | 6610 |  | 257 nM |  |  |
| O=C(c1ccc(F)cc1)C1CCN(CCn2c(=O)[nH]c3ccccc3c2=O)CC1 [3-(2-{4-[(4-fluorophenyl)carbonyl]piperidin-1-yl}ethyl)-1,2,3,4-tetrahydroquinazoline-2,4-dione] |  |  |  |  |  | 204 |  | 47.9 nM and 20.9 nM |  | Ki [12]: 1.25 nM; Ki [13]: 3550 nM |
| COc1cc(N)c(Cl)cc1C(=O)N[C@H]1CN2CCC1CC2 [4-Amino-N-(R)-1-aza-bicyclo[2.2.2]oct-3-yl-5-chloro-2-methoxy-benzamide] |  |  |  |  |  |  |  |  | 251 nM and 200 nM |  |
| CN1C[C@H](C(=O)N[C@]2(C)O[C@@]3(O)[C@@H]4CCCN4C(=O)[C@H](Cc4ccccc4)N3C2=O)C=C2c3cccc4[nH]cc(c34)C[C@H]21 [12'-hydroxy-2'-methyl-5'alpha-(phenylmethyl)ergotaman-3',6',18-trione] | 50.1 | 575 nM and 537 nM | 50.1 | 6.3 nM |  |  | 52.5 |  |  | Ki [15]: 0.07 nM; Ki [3]: 15.8 nM; Ki [4]: 0.03 nM; Ki [16]: 1.94 nM |
| CC(C)n1c(=O)n(C(=O)NC2CC3CCC(C2)N3C)c2ccccc21 (stereo not given) [BIMU 8] |  |  |  |  |  |  |  |  | 25.1 nM and 12.6 nM |  |
| CN(C)CCCSc1ccccc1NC(=O)/C=C/c1ccccc1 [CINANSERIN] |  |  |  |  |  |  |  |  |  | Ki [17]: 6.02 nM |
| Clc1cncc(N2CCNCC2)n1 [L-630,571] |  |  |  |  |  |  |  | 339 nM |  |  |
| NCCc1c[nH]c2ccc(O)cc12 [[3H]-5-HT] | 5.01 |  | 126 |  | 240 |  | 67.6 |  |  | Ki [16]: 15.8 nM; Ki [18]: 39.8 nM |
| NCCc1c[nH]c2ccc(C(N)=O)cc12 [[3H]-5-carboxamidotryptamine] | 1 | 7080 nM and 3310 nM | 3160 | 15.8 nM and 12.6 nM | 12.6 |  | 2450 |  | > 10000 nM | Ki [15]: 0.37 nM; Ki [18]: 10 nM; Ki [13]: 151 nM |
